These results are taken from ChEMBL document CHEMBL3632572, “Adenosine/guanosine preferring nucleoside ribohydrolase is a distinct, druggable antitrichomonal target” (Bioorg Med Chem Lett, 2015).

The nature of assay [1]: Inhibition of Trichomonas vaginalis adenosine-guanosine preferring ribohydrolase after 40 mins.
For assay [2], the system named is Trichomonas vaginalis. The assay can be described thus: Inhibition of Trichomonas vaginalis uridine ribohydrolase after 40 mins.
Assay [3] in a line: Inhibition of Trichomonas vaginalis adenosine-guanosine preferring ribohydrolase after 40 mins in presence of 0.01% triton X-100.

SMILES strings stand for the structures. Active and inactive are the calls of the source. The calls are words filed in the database; no cut-off is given here.

A word on the IC50: it is the midpoint of a concentration-inhibition curve. Regarding `OC[C@H]1O[C@@H](n2cnc3c(NC4CCCC4)nc(Cl)nc32)[C@H](O)[C@@H]1O`, the IC50 in assay [1] is 9.8 µM; in assay [3], 11.7 µM. In addition, the inhibition entry in assay [2] is “inactive”.
The corresponding values for `O=C1c2c(O)cc(O)cc2OC(c2ccc(O)c(O)c2)C1O` (racemic) [TAXIFOLIN] are 5.9 µM, 12.5 µM and “inactive”.
The corresponding values for `O=C1c2c(O)cc(O)cc2O[C@H](c2ccc(O)c(O)c2)[C@H]1O` [(+)-TAXIFOLIN] are 9.3 µM, 34.2 µM and “inactive”.
Turning to `COc1ccccc1OCCNCC(O)COc1cccc2[nH]c3ccccc3c12` (stereo not drawn) [CARVEDILOL], 10.4 µM corresponded to half-maximal inhibition in assay [1] (IC50). In assay [2], the inhibition entry is “inactive”.
`O=c1c(O[C@@H]2O[C@H](CO)[C@H](O)[C@H](O)[C@H]2O)c(-c2ccc(O)c(O)c2)oc2cc(O)cc(O)c12` [HYPEROSIDE]: the results for the IC50 in assay [1] and in assay [3] were 2.2 µM and 4 µM, respectively. In addition, in assay [2], the inhibition entry is “inactive”.
For the molecule `Cc1ccc(NC(=O)c2ccc(CN3CCN(C)CC3)cc2)cc1Nc1nccc(-c2cccnc2)n1` [IMATINIB], the IC50 is 1.8 µM in assay [1] and 3.5 µM in assay [3]. The inhibition result in assay [2] was “inactive”.
The like results for `O=c1c(O[C@@H]2O[C@H](CO)[C@@H](O)[C@H](O)[C@H]2O)c(-c2ccc(O)c(O)c2)oc2cc(O)cc(O)c12` [ISOQUERCETIN] were, in that order, 0.3 µM, 0.9 µM and “inactive”.
The corresponding values for `C[C@@H]1O[C@@H](OC[C@H]2O[C@@H](Oc3c(-c4ccc(O)c(O)c4)oc4cc(O)cc(O)c4c3=O)[C@H](O)[C@@H](O)[C@@H]2O)[C@H](O)[C@H](O)[C@H]1O` [RUTIN] are 10.2 µM, 17.3 µM and “inactive”.
